Several values for one entry are separate records, joined by “and”; a condition that tells them apart may be missing. Equal entries are not always repeated.
Test system: 186277-243-T-J2-PDC complex spheroid viability
Test: Anticancer human tumor 186277-243-T-J2-PDC patient-derived colon adenocarcinoma cell line growth inhibition
Conditions: for viability, T/C: stronger effect = lower value
Method in brief: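 Multicellular complex spheroids of tumor cells with human endothelial cells (HUVEC) and mesenchymal stem cells; the LSD1 inhibitor iadademstat was combined with standard-of-care or investigational agents. Top concentration at or near clinical Cmax, half-log dilutions; final DMSO ≤0.25%.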

[1] = curve of first compound, second compound 0.1 µM
[2] = curve of first compound, second compound 0.316 µM
[3] = curve of first compound, second compound 1 µM
[4] = curve of first compound, second compound 3.16 µM
[5] = curve of first compound, second compound 10 µM
[6] = second compound 0.1 µM, first compound 0.00316 µM
[7] = second compound 0.1 µM, first compound 0.01 µM
[8] = second compound 0.1 µM, first compound 0.0316 µM
[9] = second compound 0.1 µM, first compound 0.1 µM
[10] = second compound 0.316 µM, first compound 0.00316 µM
[11] = second compound 0.316 µM, first compound 0.01 µM
[12] = second compound 0.316 µM, first compound 0.0316 µM
[13] = second compound 0.316 µM, first compound 0.1 µM
[14] = second compound 1 µM, first compound 0.00316 µM
[15] = second compound 1 µM, first compound 0.01 µM
[16] = second compound 1 µM, first compound 0.0316 µM
[17] = second compound 1 µM, first compound 0.1 µM
[18] = second compound 3.16 µM, first compound 0.00316 µM
[19] = second compound 3.16 µM, first compound 0.01 µM
[20] = second compound 3.16 µM, first compound 0.0316 µM
[21] = second compound 3.16 µM, first compound 0.1 µM
[22] = second compound 10 µM, first compound 0.00316 µM
[23] = second compound 10 µM, first compound 0.01 µM
[24] = second compound 10 µM, first compound 0.0316 µM
[25] = second compound 10 µM, first compound 0.1 µM
[26] = second compound 0.1 µM, first compound 0.316 µM
[27] = second compound 0.1 µM, first compound 1 µM
[28] = second compound 0.316 µM, first compound 0.316 µM
[29] = second compound 0.316 µM, first compound 1 µM
[30] = second compound 1 µM, first compound 0.316 µM
[31] = second compound 1 µM, first compound 1 µM
[32] = second compound 3.16 µM, first compound 0.316 µM
[33] = second compound 3.16 µM, first compound 1 µM
[34] = second compound 10 µM, first compound 0.316 µM
[35] = second compound 10 µM, first compound 1 µM
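Also: 7 day exposure to compounds.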
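For viability, T/C in this document: 100% = DMSO vehicle control viability.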

`CC[C@@]1(O)C(=O)OCc2c1cc1n(c2=O)Cc2cc3c(CN(C)C)c(O)ccc3nc2-1` + NC1CC1c1ccc(-c2cccc(O)c2)cc1 was tested, and the IC50 [1] was 64.1 nM, the IC50 [2] was 58.6 nM and the IC50 [3] was 60.9 nM. It also gave an IC50 [4] of 64.4 nM, an IC50 [5] of 56.7 nM and a viability, T/C (second compound 0.1 µM, first compound 0.000316 µM) of 117%. The viability, T/C (second compound 0.1 µM, first compound 0.001 µM) was 125%, the viability, T/C [6] was 153% and the viability, T/C [7] was 116%. For the same compound, the viability, T/C [8] was 74.5%, the viability, T/C [9] was 34.9% and the viability, T/C (second compound 0.316 µM, first compound 0.000316 µM) was 101%. For the same compound, the viability, T/C (second compound 0.316 µM, first compound 0.001 µM) was 96.5%, the viability, T/C [10] was 139% and the viability, T/C [11] was 118%. It also gave a viability, T/C [12] of 71.7%, a viability, T/C [13] of 31.2% and a viability, T/C (second compound 1 µM, first compound 0.000316 µM) of 90.7%. It also gave a viability, T/C (second compound 1 µM, first compound 0.001 µM) of 108%, a viability, T/C [14] of 127% and a viability, T/C [15] of 119%. For the same compound, the viability, T/C [16] was 73.1%, the viability, T/C [17] was 32.5% and the viability, T/C (second compound 3.16 µM, first compound 0.000316 µM) was 101%. The viability, T/C (second compound 3.16 µM, first compound 0.001 µM) was 97.8%, the viability, T/C [18] was 119% and the viability, T/C [19] was 131%. For the same compound, the viability, T/C [20] was 76.3%, the viability, T/C [21] was 33.6% and the viability, T/C (second compound 10 µM, first compound 0.000316 µM) was 103%. The viability, T/C (second compound 10 µM, first compound 0.001 µM) was 96.4%, the viability, T/C [22] was 123% and the viability, T/C [23] was 116%. It also gave a viability, T/C [24] of 74% and a viability, T/C [25] of 26.7%.

For `CCc1c2c(nc3ccc(O)cc13)-c1cc3c(c(=O)n1C2)COC(=O)[C@]3(O)CC`, the viability, T/C (compound 0.000949 µM) was 48.5% and 39.8%, the viability, T/C (compound 0.003 µM) was 35.5% and 27% and the viability, T/C (compound 0.00949 µM) was 31.5% and 23.3%. The viability, T/C (compound 0.03 µM) was 22% and 4.12%, the viability, T/C (compound 0.0949 µM) was 2.19% and 0.43% and the viability, T/C (compound 0.3 µM) was 0.75% and 0.28%. It also gave an IC50 (curve of compound) of under 0.949 nM.

With `O=C(C=Cn1cnc(-c2cc(C(F)(F)F)cc(C(F)(F)F)c2)n1)NNc1cnccn1` the viability, T/C (compound 0.00316 µM) was 98.1% and 93.5%, the viability, T/C (compound 0.01 µM) was 85.8% and 106% and the viability, T/C (compound 0.0316 µM) was 23.5% and 84.3%. The viability, T/C (compound 0.1 µM) was 9.4% and 15.8%, the viability, T/C (compound 0.316 µM) was 5.65% and 4.97% and the viability, T/C (compound 1 µM) was 0.55% and 2.09%. For the same compound, the IC50 (curve of compound) was 19.4 nM and 56.4 nM.

With `COc1cc(Nc2ncc3c(n2)-c2ccc(Cl)cc2C(c2c(F)cccc2OC)=NC3)ccc1C(=O)O` + NC1CC1c1ccc(-c2cccc(O)c2)cc1 the IC50 [1] was over 1000 nM, the IC50 [2] was over 1000 nM and the IC50 [3] was over 1000 nM. The IC50 [4] was over 1000 nM, the IC50 [5] was over 1000 nM and the viability, T/C [6] was 128%. It also gave a viability, T/C [7] of 115%, a viability, T/C [8] of 116% and a viability, T/C [9] of 107%. For the same compound, the viability, T/C [26] was 124%, the viability, T/C [27] was 111% and the viability, T/C [10] was 133%. For the same compound, the viability, T/C [11] was 125%, the viability, T/C [12] was 119% and the viability, T/C [13] was 108%. For the same compound, the viability, T/C [28] was 124%, the viability, T/C [29] was 109% and the viability, T/C [14] was 140%. The viability, T/C [15] was 132%, the viability, T/C [16] was 130% and the viability, T/C [17] was 117%. For the same compound, the viability, T/C [30] was 131%, the viability, T/C [31] was 114% and the viability, T/C [18] was 155%. For the same compound, the viability, T/C [19] was 143%, the viability, T/C [20] was 143% and the viability, T/C [21] was 126%. It also gave a viability, T/C [32] of 128%, a viability, T/C [33] of 111% and a viability, T/C [22] of 137%. The viability, T/C [23] was 139%, the viability, T/C [24] was 130% and the viability, T/C [25] was 123%. For the same compound, the viability, T/C [34] was 120% and the viability, T/C [35] was 89.8%.

Work on `O=C(c1cc(Cc2n[nH]c(=O)c3ccccc23)ccc1F)N1CCN(C(=O)C2CC2)CC1` + NC1CCC(NC2CC2c2ccccc2)CC1 yielded an IC50 [1] of over 10000 nM, an IC50 [2] of over 10000 nM and an IC50 [3] of over 10000 nM. It also gave an IC50 [4] of over 10000 nM, an IC50 [5] of over 10000 nM and a viability, T/C [8] of 121%. The viability, T/C [9] was 121%, the viability, T/C [26] was 117% and the viability, T/C [27] was 123%. For the same compound, the viability, T/C (second compound 0.1 µM, first compound 3.16 µM) was 121%, the viability, T/C (second compound 0.1 µM, first compound 10 µM) was 94% and the viability, T/C [12] was 119%. The viability, T/C [13] was 114%, the viability, T/C [28] was 117% and the viability, T/C [29] was 113%. For the same compound, the viability, T/C (second compound 0.316 µM, first compound 3.16 µM) was 127%, the viability, T/C (second compound 0.316 µM, first compound 10 µM) was 84.1% and the viability, T/C [16] was 111%. The viability, T/C [17] was 112%, the viability, T/C [30] was 122% and the viability, T/C [31] was 123%. For the same compound, the viability, T/C (second compound 1 µM, first compound 3.16 µM) was 121%, the viability, T/C (second compound 1 µM, first compound 10 µM) was 79.1% and the viability, T/C [20] was 120%. The viability, T/C [21] was 120%, the viability, T/C [32] was 119% and the viability, T/C [33] was 132%. For the same compound, the viability, T/C (second compound 3.16 µM, first compound 3.16 µM) was 124%, the viability, T/C (second compound 3.16 µM, first compound 10 µM) was 80.5% and the viability, T/C [24] was 111%. For the same compound, the viability, T/C [25] was 109%, the viability, T/C [34] was 114% and the viability, T/C [35] was 134%. The viability, T/C (second compound 10 µM, first compound 3.16 µM) was 109% and the viability, T/C (second compound 10 µM, first compound 10 µM) was 69.9%.

With `CC1COCCN1c1cc(-c2ccnn2C)c2ccnc(-c3ccn[nH]3)c2n1` (centres undefined) + NC1CCC(NC2CC2c2ccccc2)CC1 the IC50 [1] was 6.56 nM, the IC50 [2] was 6.04 nM and the IC50 [3] was 5.63 nM. It also gave an IC50 [4] of 6.34 nM, an IC50 [5] of 5.91 nM and a viability, T/C [6] of 84.2%. For the same compound, the viability, T/C [7] was 30.2%, the viability, T/C [8] was 10.9% and the viability, T/C [9] was 9.28%. For the same compound, the viability, T/C [26] was 10%, the viability, T/C [27] was 11.5% and the viability, T/C [10] was 74.5%. The viability, T/C [11] was 30.9%, the viability, T/C [12] was 10.2% and the viability, T/C [13] was 8.48%. For the same compound, the viability, T/C [28] was 9.85%, the viability, T/C [29] was 11.8% and the viability, T/C [14] was 69.3%. For the same compound, the viability, T/C [15] was 30.8%, the viability, T/C [16] was 11.1% and the viability, T/C [17] was 8.48%. The viability, T/C [30] was 9.78%, the viability, T/C [31] was 12.1% and the viability, T/C [18] was 79.9%. The viability, T/C [19] was 30.4%, the viability, T/C [20] was 10.4% and the viability, T/C [21] was 8.64%. For the same compound, the viability, T/C [32] was 9.76%, the viability, T/C [33] was 12% and the viability, T/C [22] was 71.8%. The viability, T/C [23] was 31.6%, the viability, T/C [24] was 11% and the viability, T/C [25] was 9.23%. For the same compound, the viability, T/C [34] was 9.95% and the viability, T/C [35] was 11.8%.

— PubChem BioAssay AID1918933 (Molecular Pharmacology Branch, DTP, NCI, 2023)
